In patent US9676756B2 (PORTOLA PHARMACEUTICALS, INC., priority 2012, dated 2017):
Blank lines part the entries; values can stand above or below the molecule they belong to.

Experiments:
Assay type in all cases: biochemical
JAK2 = biological target: T1, JAK2 (Homo sapiens, UniProt O60674); assay: JAK tyrosine phosphorylation activity, Z'-LYTE FRET kinase assay; details: catalytic domain recombinant kinase, Tyr6 peptide
T1 construct: 5 μl of catalytic domain recombinant Kinase enzyme+Tyr peptide substrate (Invitrogen, CA); purchased Invitrogen
Experimental: (§1) JAK and SYK tyrosine phosphorylation activity is measured using the Z'-LYTE™ Technology developed by Invitrogen Corporation (Carlsbad, Calif.). For JAK1, JAK2 and JAK3 the Z'-LYTE™ Kinase Assay Kit-Tyr6 Peptide (part number PV4122) was used. The Z'-LYTE™ biochemical assay employs a fluorescence resonance energy transfer (FRET) coupled-enzyme format and is based on the differential sensitivity of phosphorylated and non-phosphorylated peptides to proteolitic cleavage. The assay uses a synthetic peptide substrate that is labelled with a donor fluorophore (coumarin) and an acceptor fluorophore (fluorescein) that make up a FRET pair. In the primary reaction (the Kinase Reaction), the kinase transfers the γ-phosphate of ATP to a single tyrosine residue on the substrate, while the presence of a kinase inhibitor in the primary reaction suppresses phosphorylation. In the secondary reaction (the Development Reaction), a site-specific protease (the Development Reagent) is added. The development buffer quenches the Kinase Reaction, while the protease recognizes and cleaves non-phosphorylated Z'-LYTE™ peptide substrate. Cleavage disrupts FRET between the donor and acceptor fluorophores on the non-phosphorylated substrate, while uncleaved, phosphorylated substrate maintains FRET.
(§2) To test the ability of candidate molecules to inhibit JAK tyrosine phosphorylation activity, molecules are reconstituted in 100% DMSO and serially diluted 1:10 in polypropylene v-bottom microtiter plates. The candidate molecules are then diluted 1:25 into kinase buffer and 2.5 μl transferred into duplicate wells of a 384 well low volume black microtiter assay plate (Corning, USA). The final DMSO concentration in the assay is 1%. The kinase reaction contains 2.5 μl of a candidate molecule, 5 μl of catalytic domain recombinant Kinase enzyme+Tyr peptide substrate (Invitrogen, CA) and 2.5 μl ATP (Invitrogen, CA). The kinase reaction is allowed to precede for 1 hour at room temperature. The protease reaction is initiated by the addition of 5 μl Development Reagent (Invitrogen, CA). After 1 hour incubation at room temperature the fluorescence is measured using a FlexStation plate reader (Molecular Devices, Sunnyvale, Calif.). The reader settings used are as follows: Fluorescence mode, endpoint, top read, excitation 400 nm, emission 445 nm and 520 nm. Auto Cutoff 435 nm and 515 nm, PMT sensitivity high, 6 reads per well. Inhibition of JAK activity is calculated as the percent phosphorylation of substrate in the presence of inhibitor compared to the percent phosphorylation of substrate in the absence of inhibitor. IC50's were derived using Xlfit 4.3 (IDBS, UK), 4 parameter logistic model 205: Y=(A+((B−A)/(1+((C/x)^D)))).

JAK3 = biological target: T2, JAK3 (Homo sapiens, UniProt P52333); assay: as above; details: catalytic domain recombinant kinase, Tyr6 peptide
T2 construct: 5 μl of catalytic domain recombinant Kinase enzyme+Tyr peptide substrate (Invitrogen, CA); purchased Invitrogen
Experimental: as §1, §2

JAK1 = biological target: T3, JAK1 (Homo sapiens, UniProt P23458); assay: as above; details: catalytic domain recombinant kinase, Tyr6 peptide
T3 construct: 5 μl of catalytic domain recombinant Kinase enzyme+Tyr peptide substrate (Invitrogen, CA); purchased Invitrogen
Experimental: as §1, §2

[1] = biological target: T4, full length active recombinant SYK enzyme (Homo sapiens, UniProt P43405); assay: SYK tyrosine phosphorylation activity, LANCE TR-FRET kinase assay; details: 1 nM SYK, 100 μM ATP, 1 hour at room temperature
T4 construct: full length active recombinant SYK enzyme (Millipore, CA); purchased Millipore
Experimental: Potency of candidate molecules for inhibiting Syk tyrosine phosphorylation activity is assessed by measuring the ability of a test compound to inhibit Syk-mediated tyrosine phosphorylation of a Syk-specific substrate.
SYK tyrosine phosphorylation activity is measured using the LANCE™ Technology developed by Perkin Elmer Life and Analytical Sciences (Boston, Mass.). LANCE™ refers to homogeneous time resolved fluorometry applications using techniques such as time-resolved fluorescence resonance energy transfer assay (TR-FRET) (see generally for procedures in Perkin Elmer Application Note—How to Optimize a Tyrosine Kinase Assay Using Time Resolved Fluorescence-Based LANCE Detection, wwww.perkinelmer.com/lifesciences). The assay principle involves detection of a phosphorylated substrate using energy transfer from a phosphospecific europium-labeled antibody to streptavidin-allophycocyanin as an acceptor.
To test the ability of candidate molecules to inhibit SYK tyrosine phosphorylation activity, molecules are reconstituted in 30% DMSO and serially diluted 1:3 with the final dilution containing DMSO in the absence of the candidate molecule. The final DMSO concentration in the assay is 3%. Kinase assays are performed as a two part reaction. The first reaction is a kinase reaction that comprises a candidate molecule, full length active recombinant SYK enzyme (Millipore, CA) and biotin-labeled SYK-specific substrate biotin-[…]-OH. The second reaction involves termination of the kinase reaction and the simultaneous addition of the detection reagents-europium-labeled anti-phosphotyrosine reagent (Eu-W1024-PY100, Perkin Elmer, Boston, Mass.) and Streptavidin-Allophycocyanin detection reagent (SA-APC, Prozyme, CA). The kinase reaction is performed in a black U-bottom 96-well microtitre plate. The final reaction volume is 50 μL and contains a final concentration of 1 nM active SYK enzyme, 550 nM SYK-substrate, and 100 μM ATP diluted in a buffer containing 50 mM Tris pH 7.5, 5 mM MgCl2, and 1 mM DTT. The reaction is allowed to proceed for 1 hour at room temperature. The stop buffer contains 100 mM Tris pH 7.5, 300 mM NaCl2, 20 mM EDTA, 0.02% Brij35, and 0.5% BSA. The detection reagents are added to the reaction mixture at the following dilutions—1:500 for Eu-W1024-PY100 and 1:250 for SA-APC. The kinase reaction is terminated by the addition of 50 μL stop buffer containing the detection reagents. The detection is allowed to proceed for 1 hr at room temperature. Detection of the phosphorolated substrate in the absence and presence of inhibitors is measured in the TR-FRET instrument, Analyst HT (Molecular Probes, Sunnyvale, Calif.) and the condition for measurements are set up using CriterionHost Release 2.0 (Molecular Probes, Sunnyvale, Calif.). The settings used are a follows: excitation 360 nm, emission 665-7.5 nm, beam splitter 350 nm 50/50, flash 100 pulses, delay 60 us, integration 400 us, z-height 2 mm. Inhibition of SYK-tyrosine kinase activity is calculated as the maximum response observed in the presence of inhibitor, compared to that in the absence of inhibitor. IC50s are derived by non-linear regression analysis.

T1 sequence (O60674 849-1124 limits assumed): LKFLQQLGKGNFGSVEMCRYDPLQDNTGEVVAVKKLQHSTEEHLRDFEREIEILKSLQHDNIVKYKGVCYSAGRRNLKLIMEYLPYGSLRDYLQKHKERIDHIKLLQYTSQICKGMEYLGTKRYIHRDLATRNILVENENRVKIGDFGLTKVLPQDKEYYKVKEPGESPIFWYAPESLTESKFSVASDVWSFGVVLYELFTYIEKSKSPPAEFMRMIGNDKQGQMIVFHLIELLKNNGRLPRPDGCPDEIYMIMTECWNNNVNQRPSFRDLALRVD
T2 sequence (P52333 822-1111 limits assumed): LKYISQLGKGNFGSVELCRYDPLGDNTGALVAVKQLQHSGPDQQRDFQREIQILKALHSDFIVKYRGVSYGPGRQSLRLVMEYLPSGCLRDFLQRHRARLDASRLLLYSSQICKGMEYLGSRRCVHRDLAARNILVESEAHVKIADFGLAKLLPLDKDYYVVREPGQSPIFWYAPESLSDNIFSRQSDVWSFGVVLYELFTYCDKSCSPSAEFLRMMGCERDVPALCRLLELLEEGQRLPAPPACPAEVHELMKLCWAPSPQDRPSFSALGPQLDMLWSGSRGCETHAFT
T3 sequence (P23458 875-1153 limits assumed): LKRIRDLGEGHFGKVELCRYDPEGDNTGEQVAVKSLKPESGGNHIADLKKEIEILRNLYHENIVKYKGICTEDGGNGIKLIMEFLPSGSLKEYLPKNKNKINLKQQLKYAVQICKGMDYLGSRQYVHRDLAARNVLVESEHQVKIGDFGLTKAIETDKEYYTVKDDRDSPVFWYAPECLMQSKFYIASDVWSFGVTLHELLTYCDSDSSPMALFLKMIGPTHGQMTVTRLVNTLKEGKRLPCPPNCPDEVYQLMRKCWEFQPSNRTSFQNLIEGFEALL

JAK2 IC50 potency class (JAK2): +++ (0.10 uM<IC50<0.01 uM)
JAK3 IC50 potency class (JAK3): ++++ (0.01 uM<IC50<0.001 uM)
JAK1 IC50 potency class (JAK1): +++ (0.10 uM<IC50<0.01 uM)
IC50 [1]: ++ (1.0 uM<IC50<0.10 uM)
Structure (SMILES): CN(C)S(=O)(=O)N1CCC(c2ccc(Nc3ncc(C(N)=O)c(NC4CC4)n3)cc2)CC1 [Compound 12, 4-(cyclopropylamino)-2-((4-(1-(N,N-dimethylsulfamoyl)piperidin-4-yl)phenyl)amino)pyrimidine-5-carboxamide]

JAK2 IC50 potency class (JAK2): ++++ (0.01 uM<IC50<0.001 uM)
JAK3 IC50 potency class (JAK3): ++++ (0.01 uM<IC50<0.001 uM)
JAK1 IC50 potency class (JAK1): +++ (0.10 uM<IC50<0.01 uM)
IC50 [1]: +++ (0.10 uM<IC50<0.01 uM)
Structure (SMILES): NC(=O)c1cnc(Nc2ccc(C3CCN(C4CCOCC4)CC3)cc2)nc1NC1CC1 [Compound 14, 4-(cyclopropylamino)-2-((4-(1-(tetrahydro-2H-pyran-4-yl)piperidin-4-yl)phenyl)amino)pyrimidine-5-carboxamide]

JAK2 IC50 potency class (JAK2): ++++ (0.01 uM<IC50<0.001 uM)
JAK3 IC50 potency class (JAK3): ++++ (0.01 uM<IC50<0.001 uM)
JAK1 IC50 potency class (JAK1): +++ (0.10 uM<IC50<0.01 uM)
IC50 [1]: +++ (0.10 uM<IC50<0.01 uM)
Structure (SMILES): CCN1CCC(c2ccc(Nc3ncc(C(N)=O)c(NC4CC4)n3)cc2)CC1 [Compound 15, 4-(cyclopropylamino)-2-((4-(1-ethylpiperidin-4-yl)phenyl)amino)pyrimidine-5-carboxamide]

JAK2 IC50 potency class (JAK2): ++ (1.0 uM<IC50<0.10 uM)
JAK3 IC50 potency class (JAK3): +++ (0.10 uM<IC50<0.01 uM)
IC50 (JAK1; read-out: JAK1 IC50 % Inhibition): > 1000 nM
IC50 [1]: ++ (1.0 uM<IC50<0.10 uM)
Structure (SMILES): NC(=O)c1cnc(Nc2ccc(C3CCN(c4ccccc4)CC3)cc2)nc1NC1CC1 [Compound 16, 4-(cyclopropylamino)-2-((4-(1-phenylpiperidin-4-yl)phenyl)amino)pyrimidine-5-carboxamide]

JAK2 IC50 potency class (JAK2): +++ (0.10 uM<IC50<0.01 uM)
JAK3 IC50 potency class (JAK3): +++ (0.10 uM<IC50<0.01 uM)
JAK1 IC50 potency class (JAK1): +++ (0.10 uM<IC50<0.01 uM)
IC50 [1]: ++ (1.0 uM<IC50<0.10 uM)
Structure (SMILES): NC(=O)c1cnc(Nc2ccc(C3CCN(c4cccnc4)CC3)cc2)nc1NC1CC1 [Compound 17, 4-(cyclopropylamino)-2-((4-(1-(pyridin-3-yl)piperidin-4-yl)phenyl)amino)pyrimidine-5-carboxamide]

JAK2 IC50 potency class (JAK2): ++++ (0.01 uM<IC50<0.001 uM)
JAK3 IC50 potency class (JAK3): ++++ (0.01 uM<IC50<0.001 uM)
JAK1 IC50 potency class (JAK1): +++ (0.10 uM<IC50<0.01 uM)
IC50 [1]: +++ (0.10 uM<IC50<0.01 uM)
Structure (SMILES): N#CCC(=O)N1CCC(c2ccc(Nc3ncc(C(N)=O)c(NC4CC4)n3)cc2)CC1 [Compound 25, 2-((4-(1-(2-cyanoacetyl)piperidin-4-yl)phenyl)amino)-4-(cyclopropylamino)pyrimidine-5-carboxamide]

More lines, now with the values behind:

Structure (SMILES): NC(=O)c1cnc(Nc2ccc(C3CCN(C4CCCC4)CC3)cc2)nc1NC1CC1 [Compound 8, 2-((4-(1-cyclopentylpiperidin-4-yl)phenyl)amino)-4-(cyclopropylamino)pyrimidine-5-carboxamide]
JAK2 IC50 potency class (JAK2): ++++ (0.01 uM<IC50<0.001 uM)
JAK3 IC50 potency class (JAK3): ++++ (0.01 uM<IC50<0.001 uM)
JAK1 IC50 potency class (JAK1): +++ (0.10 uM<IC50<0.01 uM)
IC50 [1]: +++ (0.10 uM<IC50<0.01 uM)

Structure (SMILES): CCS(=O)(=O)N1CCN(c2ccc(Nc3ncc(C(N)=O)c(NC4CC4)n3)cc2OC)CC1 [Compound 9, 4-(cyclopropylamino)-2-((4-(4-(ethylsulfonyl)piperazin-1-yl)-3-methoxyphenyl)amino)pyrimidine-5-carboxamide]
JAK2 IC50 potency class (JAK2): ++++ (0.01 uM<IC50<0.001 uM)
JAK3 IC50 potency class (JAK3): ++++ (0.01 uM<IC50<0.001 uM)
JAK1 IC50 potency class (JAK1): +++ (0.10 uM<IC50<0.01 uM)
IC50 [1]: +++ (0.10 uM<IC50<0.01 uM)

Structure (SMILES): COC(=O)N1CCC(c2ccc(Nc3ncc(C(N)=O)c(NC4CC4)n3)cc2)CC1 [Compound 10, methyl 4-(4-((5-carbamoyl-4-(cyclopropylamino)pyrimidin-2-yl)amino)phenyl)piperidine-1-carboxylate]
JAK2 IC50 potency class (JAK2): +++ (0.10 uM<IC50<0.01 uM)
JAK3 IC50 potency class (JAK3): ++++ (0.01 uM<IC50<0.001 uM)
JAK1 IC50 potency class (JAK1): +++ (0.10 uM<IC50<0.01 uM)
IC50 [1]: +++ (0.10 uM<IC50<0.01 uM)

Structure (SMILES): CCOC(=O)N1CCC(c2ccc(Nc3ncc(C(N)=O)c(NC4CC4)n3)cc2)CC1 [Compound 11, ethyl 4-(4-((5-carbamoyl-4-(cyclopropylamino)pyrimidin-2-yl)amino)phenyl)piperidine-1-carboxylate]
JAK2 IC50 potency class (JAK2): +++ (0.10 uM<IC50<0.01 uM)
JAK3 IC50 potency class (JAK3): +++ (0.10 uM<IC50<0.01 uM)
JAK1 IC50 potency class (JAK1): ++ (1.0 uM<IC50<0.10 uM)
IC50 [1]: +++ (0.10 uM<IC50<0.01 uM)

Structure (SMILES): NC(=O)c1cnc(Nc2ccc(C3CCN(C(=O)N4CCCC4)CC3)cc2)nc1NC1CC1 [Compound 13, 4-(cyclopropylamino)-2-((4-(1-(pyrrolidine-1-carbonyl)piperidin-4-yl)phenyl)amino)pyrimidine-5-carboxamide]
JAK2 IC50 potency class (JAK2): +++ (0.10 uM<IC50<0.01 uM)
JAK3 IC50 potency class (JAK3): ++++ (0.01 uM<IC50<0.001 uM)
JAK1 IC50 potency class (JAK1): +++ (0.10 uM<IC50<0.01 uM)
IC50 [1]: ++ (1.0 uM<IC50<0.10 uM)
